ChEMBL document CHEMBL4477257, “In vitro cytotoxicity of novel 2,5,7-tricarbo-substituted indoles derived from 2-amino-5-bromo-3-iodoacetophenone” (2016)
Calls of active or inactive are those of the source. The calls are words filed in the database; no cut-off is given here.

What was measured:
[1] = system: HeLa; experiment: Induction of apoptosis in human HeLa cells assessed as caspase 3 activation at 0.75 to 3 uM after 24 hrs by colorimetric analysis; assay type: functional, cell-based
[2] = system: MCF7; experiment: Cytotoxicity against human MCF7 cells assessed as cell viability at 2 uM after 2 days by MTT assay relative to control; assay type: functional; conditions: MCF7, 48 h, read-out: Activity
[3] = system: HeLa; experiment: Cytotoxicity against human HeLa cells assessed as reduction in cell viability after 2 days by MTT assay; assay type: functional; conditions: 48 h, read-out: LC50 (the source's name)
[4] = system: HeLa; experiment: Cytotoxicity against human HeLa cells assessed as cell viability at 0.5 uM after 2 days by MTT assay relative to control; assay type: functional; conditions: 48 h, read-out: Activity
[5] = system: MCF7; experiment: Cytotoxicity against human MCF7 cells assessed as cell viability at 0.5 uM after 2 days by MTT assay relative to control; assay type: functional; conditions: MCF7, 48 h, read-out: Activity
[6] = system: MCF7; experiment: Cytotoxicity against human MCF7 cells assessed as cell viability at 20 uM after 2 days by MTT assay relative to control; assay type: functional; conditions: MCF7, 48 h, read-out: Activity
[7] = system: HeLa; experiment: Induction of apoptosis in human HeLa cells assessed as viable cells at 3 uM after 48 hrs by Annexin V/propidium iodide staining based flow cytometric analysis (reference value: 46.00 +/- 0.56 %); assay type: functional; conditions: read-out: Activity
[8] = system: HeLa; experiment: Cytotoxicity against human HeLa cells assessed as cell viability at 5 uM after 2 days by MTT assay relative to control; assay type: functional; conditions: 48 h, read-out: Activity
[9] = system: MCF7; experiment: Cytotoxicity against human MCF7 cells assessed as cell viability at 5 uM after 2 days by MTT assay relative to control; assay type: functional; conditions: MCF7, 48 h, read-out: Activity
[10] = system: MCF7; experiment: Cytotoxicity against human MCF7 cells assessed as cell viability at 1 uM after 2 days by MTT assay relative to control; assay type: functional; conditions: MCF7, 48 h, read-out: Activity
[11] = system: HeLa; experiment: Cytotoxicity against human HeLa cells assessed as cell viability at 20 uM after 2 days by MTT assay relative to control; assay type: functional; conditions: 48 h, read-out: Activity
[12] = system: HeLa; experiment: Cytotoxicity against human HeLa cells assessed as cell viability at 10 uM after 2 days by MTT assay relative to control; assay type: functional; conditions: 48 h, read-out: Activity
[13] = system: HeLa; experiment: Cytotoxicity against human HeLa cells assessed as cell viability at 1 uM after 2 days by MTT assay relative to control; assay type: functional; conditions: 48 h, read-out: Activity
[14] = system: MCF7; experiment: Cytotoxicity against human MCF7 cells assessed as cell viability at 10 uM after 2 days by MTT assay relative to control; assay type: functional; conditions: MCF7, 48 h, read-out: Activity
[15] = system: MCF7; experiment: Cytotoxicity against human MCF7 cells assessed as reduction in cell viability after 2 days by MTT assay; assay type: functional; conditions: MCF7, 48 h, read-out: LC50 (the source's name)
[16] = system: HeLa; experiment: Induction of apoptosis in human HeLa cells assessed as late apoptotic cells at 3 uM after 48 hrs by Annexin V/propidium iodide staining based flow cytometric analysis (reference value: 31.80 +/- 0.25 %); assay type: functional
[17] = system: HeLa; experiment: Induction of apoptosis in human HeLa cells assessed as necrotic cells at 3 uM after 48 hrs by Annexin V/propidium iodide staining based flow cytometric analysis (reference value: 21.45 +/- 0.78 %); assay type: functional
[18] = system: HeLa; experiment: Cytotoxicity against human HeLa cells assessed as cell viability at 2 uM after 2 days by MTT assay relative to control; assay type: functional; conditions: 48 h, read-out: Activity
[19] = system: HeLa; experiment: Induction of apoptosis in human HeLa cells assessed as early apoptotic cells at 3 uM after 48 hrs by Annexin V/propidium iodide staining based flow cytometric analysis (reference value: 0.05 +/- 0.07 %); assay type: functional

Question: How did the Activity [1] turn out when `COc1cccc2c1C(=O)c1c(O)c3c(c(O)c1C2=O)C[C@@](O)(C(=O)CO)C[C@@H]3O[C@H]1C[C@H](N)[C@H](O)[C@H](C)O1.Cl` [DOXORUBICIN HYDROCHLORIDE] was run?
Answer: Active

Question: What about the viability at 2 µM [2] of the same molecule?
Answer: 38.4%

Question: And the CC50 [3]?
Answer: 780 nM

Question: What about the viability at 0.5 µM [4] of the same molecule?
Answer: 62.8%

Question: And the viability at 0.5 µM [5]?
Answer: 66.4%

Question: What about the viability at 20 µM [6] of the same molecule?
Answer: 24%

Question: And the viability at 3 µM [7]?
Answer: 1.55%

Question: And the viability at 5 µM [8]?
Answer: 8.53%

Question: What about the viability at 5 µM [9] of the same molecule?
Answer: 34%

Question: And the viability at 1 µM [10]?
Answer: 44%

Question: And the viability at 20 µM [11]?
Answer: 3.41%

Question: And the viability at 10 µM [12]?
Answer: 4.43%

Question: What about the viability at 1 µM [13] of the same molecule?
Answer: 46%

Question: And the viability at 10 µM [14]?
Answer: 27.5%

Question: What about the CC50 [15] of the same molecule?
Answer: 1070 nM

Question: And the Activity [16]?
Answer: 58.5%

Question: And the Activity [17]?
Answer: 40.4%

Question: What about the viability at 2 µM [18] of the same molecule?
Answer: 39.2%

Question: And the Activity [19]?
Answer: 0.95%
